Assay results from ChEMBL document CHEMBL1122146, “Conformation-activity study of methadone and related compounds” (J Med Chem, 1982).

Biological target: Mu-type opioid receptor (Cavia porcellus) (UniProt P97266)
Assay: Evaluated for analgesic activity as effective dose
Format: functional

Mu-type opioid receptor (Cavia porcellus), sequence (P97266 whole entry): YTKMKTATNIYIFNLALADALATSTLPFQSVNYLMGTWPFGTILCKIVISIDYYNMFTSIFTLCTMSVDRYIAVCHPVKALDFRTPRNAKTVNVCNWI

Compound	ED50 [mg/kg]
CC[C@@H](O)C(c1ccccc1)(c1ccccc1)[C@@H](C)CN(C)C	58.7
CC[C@H](O)C(C[C@@H](C)N(C)C)(c1ccccc1)c1ccccc1	7.6
CCC(=O)C(CC(C)N(C)C)(c1ccccc1)c1ccccc1 (stereo in doubt; threo)	> 50
CCC(O)C(C[C@@H](C)NC)(c1ccccc1)c1ccccc1 (some centres not stated)	17.7
CCC(=O)C(CC(C)N(C)C)(c1ccccc1)c1ccccc1 (stereo in doubt; erythro)	0.4
CCC(=O)C(c1ccccc1)(c1ccccc1)[C@H](C)CN(C)C	1.2
CC[C@H](O)C(C[C@H](C)N(C)C)(c1ccccc1)c1ccccc1	3.5
CCC(=O)C(C[C@@H](C)N(C)C)(c1ccccc1)c1ccccc1	0.8
CC[C@@H](O)C(c1ccccc1)(c1ccccc1)[C@H](C)CN(C)C	91.7
CC[C@H](O)C(c1ccccc1)(c1ccccc1)[C@H](C)CN(C)C	6.2
CC[C@@H](O)C(C[C@H](C)N(C)C)(c1ccccc1)c1ccccc1	63.7
CCC(=O)C(C[C@H](C)N(C)C)(c1ccccc1)c1ccccc1	25.7
CCC(=O)C(CCN(C)C)(c1ccccc1)c1ccccc1	2.5
CCC(=O)C(c1ccccc1)(c1ccccc1)[C@@H](C)CN(C)C	49.8
CCC(O)C(C[C@H](C)NC)(c1ccccc1)c1ccccc1 (some centres not stated)	10.3
CC[C@@H](O)C(C[C@@H](C)N(C)C)(c1ccccc1)c1ccccc1	24.7
CC[C@H](O)C(c1ccccc1)(c1ccccc1)[C@@H](C)CN(C)C	60.7
